In ChEMBL document CHEMBL5537181 (J Med Chem, 2024) one finds inhibition data, which are given here for 51 molecules.

Calls of active or inactive are those of the source. The calls are words filed in the database; no cut-off is given here. Where a SMILES comes first, the peptide text is derived from it. Bridges are numbered along the chain shown (N, C = ends).

Voltage-dependent N-type calcium channel subunit alpha-1B, sequence (Q00975 whole entry, looked up): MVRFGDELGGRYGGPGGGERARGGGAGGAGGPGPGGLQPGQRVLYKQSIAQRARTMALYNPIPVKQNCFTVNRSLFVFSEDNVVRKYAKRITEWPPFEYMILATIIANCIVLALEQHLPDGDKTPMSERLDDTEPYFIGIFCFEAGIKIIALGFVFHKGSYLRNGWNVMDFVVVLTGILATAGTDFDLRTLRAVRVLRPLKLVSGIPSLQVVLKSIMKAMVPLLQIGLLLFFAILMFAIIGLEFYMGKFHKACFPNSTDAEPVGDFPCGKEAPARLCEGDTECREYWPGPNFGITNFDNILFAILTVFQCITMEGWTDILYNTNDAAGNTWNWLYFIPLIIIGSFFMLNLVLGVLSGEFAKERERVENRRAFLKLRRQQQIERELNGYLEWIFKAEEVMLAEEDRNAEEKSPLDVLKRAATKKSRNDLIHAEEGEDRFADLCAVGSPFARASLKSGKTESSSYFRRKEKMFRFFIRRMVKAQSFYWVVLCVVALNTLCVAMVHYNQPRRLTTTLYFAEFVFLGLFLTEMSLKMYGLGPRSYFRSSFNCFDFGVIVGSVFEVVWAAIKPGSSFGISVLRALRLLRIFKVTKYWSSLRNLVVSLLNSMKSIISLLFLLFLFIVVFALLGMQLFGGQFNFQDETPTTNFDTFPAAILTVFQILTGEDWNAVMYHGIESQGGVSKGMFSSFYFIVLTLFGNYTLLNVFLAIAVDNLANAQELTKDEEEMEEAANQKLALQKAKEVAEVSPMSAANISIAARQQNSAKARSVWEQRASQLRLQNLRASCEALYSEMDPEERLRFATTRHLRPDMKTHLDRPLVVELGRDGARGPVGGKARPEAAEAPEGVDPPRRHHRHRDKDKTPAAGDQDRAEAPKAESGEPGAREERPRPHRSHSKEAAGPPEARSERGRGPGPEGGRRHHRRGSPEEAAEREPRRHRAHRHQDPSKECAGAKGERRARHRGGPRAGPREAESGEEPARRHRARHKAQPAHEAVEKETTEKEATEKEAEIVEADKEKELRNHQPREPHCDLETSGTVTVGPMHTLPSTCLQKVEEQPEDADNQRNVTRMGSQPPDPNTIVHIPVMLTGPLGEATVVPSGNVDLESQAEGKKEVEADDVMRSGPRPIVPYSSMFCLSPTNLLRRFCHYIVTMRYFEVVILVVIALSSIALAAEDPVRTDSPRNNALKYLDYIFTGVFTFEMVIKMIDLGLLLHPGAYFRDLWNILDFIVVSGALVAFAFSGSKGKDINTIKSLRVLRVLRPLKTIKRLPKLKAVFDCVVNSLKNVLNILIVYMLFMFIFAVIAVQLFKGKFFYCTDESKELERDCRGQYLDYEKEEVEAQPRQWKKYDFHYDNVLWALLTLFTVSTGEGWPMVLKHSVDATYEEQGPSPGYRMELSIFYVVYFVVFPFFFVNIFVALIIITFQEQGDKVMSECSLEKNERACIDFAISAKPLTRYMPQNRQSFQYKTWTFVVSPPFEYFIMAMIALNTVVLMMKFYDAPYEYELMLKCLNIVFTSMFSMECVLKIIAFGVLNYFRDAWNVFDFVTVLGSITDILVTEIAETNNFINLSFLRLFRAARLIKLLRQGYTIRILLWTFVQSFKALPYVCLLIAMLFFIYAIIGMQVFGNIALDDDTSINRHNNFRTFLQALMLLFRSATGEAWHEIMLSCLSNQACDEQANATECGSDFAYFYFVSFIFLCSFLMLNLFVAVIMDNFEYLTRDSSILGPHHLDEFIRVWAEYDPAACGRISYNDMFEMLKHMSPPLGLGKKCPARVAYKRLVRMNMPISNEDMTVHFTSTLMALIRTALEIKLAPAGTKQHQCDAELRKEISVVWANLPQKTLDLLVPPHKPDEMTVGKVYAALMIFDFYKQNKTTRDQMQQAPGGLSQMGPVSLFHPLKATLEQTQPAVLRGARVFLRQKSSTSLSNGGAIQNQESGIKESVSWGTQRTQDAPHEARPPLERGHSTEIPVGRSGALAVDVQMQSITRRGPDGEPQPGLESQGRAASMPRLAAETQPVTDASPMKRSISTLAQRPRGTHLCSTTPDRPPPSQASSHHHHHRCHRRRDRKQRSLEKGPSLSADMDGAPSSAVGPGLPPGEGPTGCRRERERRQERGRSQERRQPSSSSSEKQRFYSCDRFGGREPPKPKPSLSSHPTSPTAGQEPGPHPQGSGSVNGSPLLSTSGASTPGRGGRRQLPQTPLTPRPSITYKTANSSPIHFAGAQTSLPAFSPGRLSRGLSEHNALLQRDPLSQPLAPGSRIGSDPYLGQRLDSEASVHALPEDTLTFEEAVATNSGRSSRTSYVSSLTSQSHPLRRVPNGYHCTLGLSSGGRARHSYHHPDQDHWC

The first assay concerns the target Voltage-dependent N-type calcium channel subunit alpha-1B (Homo sapiens, UniProt Q00975). Briefly: Inhibition of human Cav2.2 channel transfected in HEK293T cells co-expressed with human GABAB receptor assessed as inhibition of Cav2.2-mediated Ba2+ current at 100 nM measured for 3 to 5 days by whole-cell patch clamp assay. It counts as cell-based. The following applies: time 3-5 day. For orientation: Patch clamp records ionic current or voltage across a cell membrane.
Regarding H-GRARSPYDRRRRYRRITD-NH2, the inhibition (usually the change of the read-out against control, counted positive when it falls) is 10%.
As for H-GRYRSPADRRRRYRRITD-NH2, the inhibition was 60%.
Still for that read-out and setting: in the case of H-GRYRSPYARRRRYRRITD-NH2 it was 50%.
On to H-GRYRSPYDARRRYRRITD-NH2, for which the inhibition came out at 50%.
The same measure, in the same setting: with H-GRYRSPYDRRRAYRRITD-NH2 the figure was 10%; with H-GRYRSPYDRRRRYARITD-NH2, 10%; with H-GRYRSPYDRRRRYRRATD-NH2, 80%.
On the same count and under the same terms, in the case of H-GRYRSPYDRRRRYRRITA-NH2 it was 10%.

The next assay deals with Neuronal acetylcholine receptor; alpha9/alpha10 (Homo sapiens) (UniProt Q9UGM1+Q9GZZ6). Briefly: Antagonist activity at human wild type alpha9alpha10 nAChR expressed in acetylcholine-induced Xenopus laevis oocytes assessed as inhibition of acetylcholine-induced current at 30 nM by two electrode voltage-clamp assay relative to control. It is filed as cell-based. To be noted: Oocyte. (In general: In two-electrode clamp one electrode senses voltage and the other passes current.)
For `CC[C@@H](C)[C@@H](NC(=O)[C@@H](CCCNC(=N)N)NC(=O)[C@@H](CCCNC(=N)N)NC(=O)[C@@H](Cc1ccc(O)cc1)NC(=O)[C@@H](CCCNC(=N)N)NC(=O)[C@@H](CCCNC(=N)N)NC(=O)[C@@H](CCCNC(=N)N)NC(=O)[C@@H](CCCNC(=N)N)NC(=O)[C@@H](CC(=O)O)NC(=O)[C@@H](Cc1ccc(O)cc1)NC(=O)[C@H]1CCCN1C(=O)[C@@H](CO)NC(=O)[C@@H](CCCNC(=N)N)NC(=O)[C@@H](Cc1ccc(O)cc1)NC(=O)[C@@H](CCCNC(=N)N)NC(=O)CN)C(=O)N[C@@H](C(=O)N[C@H](CC(=O)O)C(N)=O)[C@H](C)O`, the inhibition is 25%.
On the same count and under the same terms, with `N=C(N)NCCC[C@@H]1NC(=O)[C@H](CCCNC(=N)N)NC(=O)[C@H](CCCNC(=N)N)NC(=O)[C@H](CCCNC(=N)N)NC(=O)[C@H](CC(=O)O)NC(=O)[C@H](Cc2ccc(O)cc2)NC(=O)[C@@H]2CCCN2C(=O)[C@H](CO)NC(=O)[C@H](CCCNC(=N)N)NC(=O)[C@@H](N)CSSC[C@@H](C(N)=O)NC(=O)[C@H](Cc2ccc(O)cc2)NC1=O` (H-CRSPYDRRRRYC-NH2; disulfide 1-12) the figure was 25%; with `CC[C@H](C)[C@H](NC(=O)[C@H](CCCNC(=N)N)NC(=O)[C@H](CCCNC(=N)N)NC(=O)[C@@H]1CSSC[C@H](N)C(=O)N[C@@H](CCCNC(=N)N)C(=O)N[C@@H](CO)C(=O)N2CCC[C@H]2C(=O)N[C@@H](Cc2ccc(O)cc2)C(=O)N[C@@H](CC(=O)O)C(=O)N[C@@H](CCCNC(=N)N)C(=O)N[C@@H](CCCNC(=N)N)C(=O)N[C@@H](CCCNC(=N)N)C(=O)N[C@@H](CCCNC(=N)N)C(=O)N[C@@H](Cc2ccc(O)cc2)C(=O)N1)C(=O)N[C@H](C(=O)N[C@@H](CC(=O)O)C(N)=O)[C@@H](C)O` (H-CRSPYDRRRRYCRRITD-NH2; disulfide 1-12), 25%.
As for `CC[C@H](C)[C@H](NC(=O)[C@H](CCCNC(=N)N)NC(=O)[C@H](CCCNC(=N)N)NC(=O)[C@@H]1CSSC[C@H](NC(=O)[C@H](Cc2ccc(O)cc2)NC(=O)[C@H](CCCNC(=N)N)NC(=O)CN)C(=O)N[C@@H](CCCNC(=N)N)C(=O)N[C@@H](CO)C(=O)N2CCC[C@H]2C(=O)N[C@@H](Cc2ccc(O)cc2)C(=O)N[C@@H](CC(=O)O)C(=O)N[C@@H](CCCNC(=N)N)C(=O)N[C@@H](CCCNC(=N)N)C(=O)N[C@@H](CCCNC(=N)N)C(=O)N[C@@H](CCCNC(=N)N)C(=O)N[C@@H](Cc2ccc(O)cc2)C(=O)N1)C(=O)N[C@H](C(=O)N[C@@H](CC(=O)O)C(N)=O)[C@@H](C)O` (H-GRYCRSPYDRRRRYCRRITD-NH2; disulfide 4-15), the inhibition came to 25%.
`CC[C@H](C)[C@H](NC(=O)[C@H](CCCNC(=N)N)NC(=O)[C@H](CCCNC(=N)N)NC(=O)[C@@H]1CSSC[C@H](NC(=O)[C@H](Cc2ccc(O)cc2)NC(=O)[C@@H](N)CCCNC(=N)N)C(=O)N[C@@H](CCCNC(=N)N)C(=O)N[C@@H](CO)C(=O)N2CCC[C@H]2C(=O)N[C@@H](Cc2ccc(O)cc2)C(=O)N[C@@H](CC(=O)O)C(=O)N[C@@H](CCCNC(=N)N)C(=O)N[C@@H](CCCNC(=N)N)C(=O)N[C@@H](CCCNC(=N)N)C(=O)N[C@@H](CCCNC(=N)N)C(=O)N[C@@H](Cc2ccc(O)cc2)C(=O)N1)C(=O)N[C@H](C(=O)N[C@@H](CC(=O)O)C(N)=O)[C@@H](C)O` (H-RYCRSPYDRRRRYCRRITD-NH2; disulfide 3-14): the inhibition was 25%.
`CC[C@H](C)[C@H](NC(=O)[C@H](CCCNC(=N)N)NC(=O)[C@H](CCCNC(=N)N)NC(=O)[C@@H]1CSSC[C@H](NC(=O)[C@@H](N)Cc2ccc(O)cc2)C(=O)N[C@@H](CCCNC(=N)N)C(=O)N[C@@H](CO)C(=O)N2CCC[C@H]2C(=O)N[C@@H](Cc2ccc(O)cc2)C(=O)N[C@@H](CC(=O)O)C(=O)N[C@@H](CCCNC(=N)N)C(=O)N[C@@H](CCCNC(=N)N)C(=O)N[C@@H](CCCNC(=N)N)C(=O)N[C@@H](CCCNC(=N)N)C(=O)N[C@@H](Cc2ccc(O)cc2)C(=O)N1)C(=O)N[C@H](C(=O)N[C@@H](CC(=O)O)C(N)=O)[C@@H](C)O` (H-YCRSPYDRRRRYCRRITD-NH2; disulfide 2-13): the inhibition amounted to 25%.
Turning to `CC[C@H](C)[C@@H]1NC(=O)[C@H](CCCNC(=N)N)NC(=O)[C@H](CCCNC(=N)N)NC(=O)[C@@H]2CSSC[C@H](NC(=O)[C@H](Cc3ccc(O)cc3)NC(=O)[C@H](CCCNC(=N)N)NC(=O)CNC(=O)[C@H](CC(=O)O)NC(=O)[C@H]([C@@H](C)O)NC1=O)C(=O)N[C@@H](CCCNC(=N)N)C(=O)N[C@@H](CO)C(=O)N1CCC[C@H]1C(=O)N[C@@H](Cc1ccc(O)cc1)C(=O)N[C@@H](CC(=O)O)C(=O)N[C@@H](CCCNC(=N)N)C(=O)N[C@@H](CCCNC(=N)N)C(=O)N[C@@H](CCCNC(=N)N)C(=O)N[C@@H](CCCNC(=N)N)C(=O)N[C@@H](Cc1ccc(O)cc1)C(=O)N2` (cyclo(CRRITDGRYCRSPYDRRRRY); disulfide 1-10), the inhibition came out at 25%.
On the same count and under the same terms, in the case of H-ARYRSPYDRRRRYRRITD-NH2 it was 20%.
Turning to H-DRYRSPYDRRRRYRRITD-NH2, the inhibition turned out to be 0%.
With H-GAYRSPYDRRRRYRRITD-NH2, the inhibition is 20%.
Regarding H-GDYRSPYDRRRRYRRITD-NH2, the inhibition turned out to be 0%.
Still for that read-out and setting: with H-GRARSPYDRRRRYRRITD-NH2 the figure was 20%.
On the same count and under the same terms, with H-GRRRSPYDRRRRYRRITD-NH2 the figure was 10%; with H-GRYAAPYDRRRRYRRITD-NH2, 20%.
Consider H-GRYASPYDRRRRYRRITD-NH2, for which the inhibition was determined as 20%.
Same read-out and setting: with H-GRYDSPYDRRRRYRRITD-NH2 the figure was 0%.
Still for that read-out and setting: in the case of H-GRYRDPYDRRRRYRRITD-NH2 it was 0%; in that of H-GRYRSAYDRRRRYRRITD-NH2, 20%; in that of H-GRYRSDYDRRRRYRRITD-NH2, 0%.
On the same count and under the same terms, in the case of H-GRYRSPADRRRRYRRITD-NH2 it was 20%; in that of H-GRYRSPRDRRRRYRRITD-NH2, 10%; in that of H-GRYRSPYARRRRYRRITD-NH2, 20%.
Consider H-GRYRSPYDARRRYRRITD-NH2, for which the inhibition came to 20%.
For the molecule H-GRYRSPYDDRRRYRRITD-NH2, the inhibition was found to be 0%.
Take H-GRYRSPYDRARRYRRITD-NH2: the inhibition was determined as 20%.
On the same count and under the same terms, with H-GRYRSPYDRDRRYRRITD-NH2 the figure was 0%; with H-GRYRSPYDRRDRYRRITD-NH2, 0%; with H-GRYRSPYDRRRDYRRITD-NH2, 0%.
H-GRYRSPYDRRRRDRRITD-NH2: the inhibition worked out at 0%.
Still for that read-out and setting: with H-GRYRSPYDRRRRRRRITD-NH2 the entry was “inactive”.
For the molecule H-GRYRSPYDRRRRYDRITD-NH2, the inhibition amounted to 0%.
On the same count and under the same terms, with H-GRYRSPYDRRRRYRAITD-NH2 the figure was 20%; with H-GRYRSPYDRRRRYRDDTD-NH2, 0%; with H-GRYRSPYDRRRRYRDIDD-NH2, 0%.
Take H-GRYRSPYDRRRRYRDITD-NH2: the inhibition came to 0%.
Regarding H-GRYRSPYDRRRRYRRATD-NH2, the inhibition was 20%.
As to H-GRYRSPYDRRRRYRRIAD-NH2, the inhibition is 20%.
On the same count and under the same terms, in the case of H-GRYRSPYDRRRRYRRIRD-NH2 it was 10%.
In the case of H-GRYRSPYDRRRRYRRITA-NH2, the inhibition came to 20%.
Turning to H-GRYRSPYDRRRRYRRITR-NH2, the inhibition entry is “inactive”.
On the same count and under the same terms, with H-GRYRSPYRRRRRYRRITD-NH2 the figure was 10%; with H-GRYRSRYDRRRRYRRITD-NH2, 10%; with H-RRYRSPYDRRRRYRRITD-NH2, 10%.

Staying with this assay, now noted: Oocyte, filed as antagonist.
With H-GRDRSPYDRRRRYRRITD-NH2, the inhibition result was “Active”.
Same read-out and setting: in the case of H-GRYRRPYDRRRRYRRITD-NH2 it was more than 80%.
The same measure, in the same setting: in the case of H-GRYRSPDDRRRRYRRITD-NH2 it was “Active”; in that of H-GRYRSPYDRRARYRRITD-NH2, “Active”.
H-GRYRSPYDRRRAYRRITD-NH2: the inhibition entry is “Active”.
As for H-GRYRSPYDRRRRARRITD-NH2, the inhibition entry is “Active”.
Still for that read-out and setting: in the case of H-GRYRSPYDRRRRYARITD-NH2 it was “Active”; in that of H-GRYRSPYDRRRRYRRRTD-NH2, more than 80%.
